Data: US20120328569A1, “INHIBITORS OF HEPATITIS C VIRUS NS5B POLYMERASE” (priority 2010, published 2012)

The molecules below were run on HCV genotype 1b replicon (assay: HCV replicon assay, cell ELISA with antibody to replicon-encoded NS3/4A (genotype 1b replicon)). Details: Hepatitis C virus, 96 h, read-out: 1b IC50(nM), HCV genotype 1b replicon; 96 hours incubation; NS3/4A cell ELISA.
Format: cell-based, hepatitis C virus
Outline: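 An ELISA on lysed cells, using an antibody against NS3/4A protease, served as the proxy for replicon RNA. Cells had first been exposed for 96 h to serially diluted compound in G418-free conditions. Percent of DMSO control was fitted with a four-parameter function to give IC50.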

Compound	IC50
CNC(=O)c1c(-c2ccc(F)cc2)oc2cc(N(CC(C)(CO)CF)S(C)(=O)=O)c(-c3ccc(OC)c(-c4nc5c(F)cccc5o4)c3)cc12 (stereo not drawn) [Example 813]	107 nM
CNC(=O)c1c(-c2ccc(F)cc2)oc2cc(N(C)S(C)(=O)=O)c(-c3cc(OS(C)(=O)=O)cc(-c4nc5c(F)cccc5o4)c3)cc12 [Example 627]	1.4 nM
CNC(=O)c1c(-c2ccc(F)cc2)oc2cc(N(C)S(C)(=O)=O)c(-c3ccc(OC)c(-c4nc5c(C(C)(C)C#N)cccc5o4)c3)cc12 [Example 428]	29.1 nM

Same assay, conditions: Hepatitis C virus, 96 h, read-out: Replicon 1b IC50 (nM), HCV genotype 1b replicon cells, 96 hours incubation, NS3/4A ELISA readout

Compound	IC50
CNC(=O)c1c(-c2ccc(F)cc2)oc2cc(N(C)S(C)(=O)=O)c(-c3cccc(-c4nc5ccc(C)cc5[nH]4)c3)cc12 [Example 154, 2-(4-fluorophenyl)-N-methyl-5-[3-(6-methyl-1H-benzimidazol-2-yl)phenyl]-6-[methyl (methylsulfonyl)amino]-1-benzofuran-3-carboxamide]	4 nM
CNC(=O)c1c(-c2ccc(F)cc2)oc2cc(N(C)S(C)(=O)=O)c(-c3cccc(-c4nc5cccc(F)c5o4)c3)cc12 [Example 160]	7 nM
CNC(=O)c1c(-c2ccc(F)cc2)oc2cc(N(C)S(C)(=O)=O)c(-c3cccc(-c4nc5ccc(NS(C)(=O)=O)cc5o4)c3)cc12 [Example 281, 2-(4-fluorophenyl)-N-methyl-6-(N-methylmethylsulfonamido)-5-(3-(6-(methylsulfonamido)benzo[d]oxazol-2-yl)phenyl)benzofuran-3-carboxamide]	3.3 nM
CCCCN(c1cc2oc(-c3ccc(F)cc3)c(C(=O)NC)c2cc1-c1ccccc1)S(C)(=O)=O [Example 17, 6-[butyl (methylsulfonyl)amino]-2-(4-fluorophenyl)-N-methyl-5-phenyl-1-benzofuran-3-carboxamide]	48 nM
CNC(=O)c1c(-c2ccc(F)cc2)oc2cc(N(C)S(C)(=O)=O)c(-c3ccc(Cl)c(-c4nc5nccnc5[nH]4)c3)cc12 [Example 340]	15.8 nM
CNC(=O)c1cccc(-c2cc3c(C(=O)NC)c(-c4ccc(F)cc4)oc3cc2N(C)S(C)(=O)=O)c1 [Example 100, 2-(4-fluorophenyl)-N-methyl-5-[3-(methylcarbamoyl)phenyl]-6-[methyl(methylsulfonyl)amino]-1-benzofuran-3-carboxamide]	45 nM
CNC(=O)c1c(-c2ccc(F)cc2)oc2cc(N(C)S(C)(=O)=O)c(-c3cc(F)cc(-c4nc5ccc(Cl)cc5o4)c3)cc12 [Example 163]	8.5 nM
CNC(=O)c1c(-c2ccc(F)cc2)oc2cc(N(C)S(C)(=O)=O)c(-c3ccc(OCCO)c(-c4nc5ncccc5o4)c3)cc12 [Example 237]	2.6 nM
CNC(=O)c1c(-c2ccc(F)cc2)oc2cc(N(C)S(C)(=O)=O)c(-c3ccc(Cl)c(-c4nc5cccnc5[nH]4)c3)cc12 [Example 319]	13.6 nM
CNC(=O)c1c(-c2ccc(F)cc2)oc2cc(N(C)S(C)(=O)=O)c(-c3cccc(-c4nc5ccccc5n4C)c3)cc12 [Example 332]	9.6 nM
CNC(=O)c1c(-c2ccc(F)cc2)oc2cc(N(C)S(C)(=O)=O)c(-c3cccc(-c4nc5cc(F)ccc5[nH]4)c3)cc12 [Example 150, 5-[3-(5-fluoro-1H-benzimidazol-2-yl)phenyl]-2-(4-fluorophenyl)-N-methyl-6-[methyl(methylsulfonyl)amino]-1-benzofuran-3-carboxamide]	1 nM
CNC(=O)c1c(-c2ccc(F)cc2)oc2cc(N(C)S(C)(=O)=O)c(-c3cccc(-c4nc5ccccc5o4)c3OC)cc12 [Example 157]	22.7 nM
CNC(=O)c1c(-c2ccc(F)cc2)oc2cc(NC(=O)CN(C)c3ccccc3)c(-c3ccccc3)cc12 [Example 73]	143 nM
CONC(=O)c1cccc(-c2cc3c(C(=O)NOC)c(-c4ccc(F)cc4)oc3cc2N(C)S(C)(=O)=O)c1 [Example 99, 2-(4-fluorophenyl)-N-methoxy-5-[3-(methoxycarbamoyl)phenyl]-6-[methyl(methylsulfonyl)amino]-1-benzofuran-3-carboxamide]	623 nM
CNC(=O)c1c(-c2ccc(F)cc2)oc2cc(N(C)S(C)(=O)=O)c(-c3cc(F)cc(-c4nc5cccc(F)c5o4)c3)cc12 [Example 161]	3.7 nM
